Reference: patent publication US20050025821A1, “Lipid-comprising drug delivery complexes and methods for their production” (priority 2001, published 2005)
Blank lines part the entries; values can stand above or below the molecule they belong to. Non-standard residues stand in square brackets, D forms with d. Residues, ends and D or L forms follow the SMILES beside them. No end group written: not given here.

Assays:
[1] = tested on: KB cells; test: Effect of lysomotrophic agent on PPAA-mediated transfection; assay type: cell-based; conditions: added half an hour prior to LPD
Description: Lysomotrophic agent, either chloroquine (an anti-malarial drug, weak base protonated in endosome) or bafilomycin A (a specific ATPase inhibitor which reduces the amount of protons entering the endosome), capable of preventing endosomal acidification, were added in varying amounts to the transfection mixture half and hour prior to LPD addition to the cells.

[2] = tested on: HepSK1 cells; test: In vitro transfection (luciferase expression); assay type: cell-based, human; conditions: Hep-SK 1 (non-ASGPR), 100 μM ligand, 1 μg DNA
Description: (§1) For in vitro cell testing of the galactosylated peptides, the following cell lines were used: HepG2 (ATCC, Manassas, Va.): Hepatocarcinoma cell line expressing the asialyglycoprotein (ASGP) receptor. […] These two cell lines were tested for the presence of the ASGP receptor by westen blotting with an anti-asialoglycoprotein receptor antibody from Calbiochem (Nottingham, UK). This confirmed the presence of the receptor in HepG2 cells and the absence of the receptor from Hep-SK1 cells (data not shown).
(§2) The formulations were incubated with the cells for 4 h, at which point the formulations were aspirated and fresh serum containing complete medium was added to the cells. Cells were harvested 48 h post transfection and were assayed for total cell protein expression and luciferase reporter gene expression. […] Thus, multifunctional targeting factors such as galactose-Elan094 (SEQ ID NO:6) can increase transfection activity over a single fimctional targeting factor.
In vitro cell transfections were carried out as described supra in a number of cell types. […] The results for two different cell types, a human liver cell line (HepSK1) and a human breast cell line (MDA-MB-231), are shown in Tables 7 and 8.

[3] = tested on: HepG2 cells; test: In vitro transfection (luciferase expression); assay type: cell-based; conditions: for transfection with DC-Chol:DOPE LPDs containing ligand: HepG2 (ASGPR bearing), 100 μM ligand, 1 μg DNA
Description: 16-24 hr prior to transfection, 5×10^4 cells (MDA-MB-231, LL/2 or HepG-2 (ATCC, Manassas, Va.)) in 500 μl/well of appropriate media (ATCC catalog describes appropriate media for each cell type) containing 10% FBS were seeded in a 48 well plate (Costar, Coming, N.Y.) and incubated overnight at 37° C. in 5% or 10% CO2. The following day, the media was removed and replaced with 500 μl of fresh serum-free media. […] After transfection, luciferase activity was assayed as described (Promega Luciferase Assay Kit, Cat. No. E1501, Madison, Wis.). Briefly, the cell culture media was removed and replaced by fresh media containing 10% FBS, and the cells were incubated at 37° C. in 5% or 10% CO2 for a further 48 h. Each well was washed with 1 ml PBS 0.095 M pH7.4 (Biowhittaker, Walkersville, Md.) and suspended in 200 μl of 1× luciferase reporter buffer (RLB) (Promega, Madison, Wis.). The cells were then subject to 3 cycles of freeze/thaw at −70° C./37° C., respectively. Cells were harvested and spun for 10 min at 14,000 rpm. 20 μl of the supernatant was assayed for luciferase activity by addition of 100 μl of luciferase substrate (Promega, Madison, Wis.), followed by a 10 sec incubation time at room temperature before luminescence relative units were measured using a Berthold (Aliquippa, Pa. autolumat B953 luminometer. The total protein concentration per sample was determined using a commercial kit of Coomassie plus dye (Pierce, Rockford, Ill.).
as §1, §2

[4] = target: LHRH receptor on MDA-MB-231, SKOV3-IP1 and H-69 cells (human) (UniProt P30968); test: cell-based or functional assay
[5] = MTLP peptide stability in serum over time (HPLC-UV); assay type: in vitro ADME, mouse; conditions: 37° C.; for stability in mouse serum (recovery by HPLC-UV): 1 mg/mL peptide + equal volume mouse serum, 10-120 min
Description: The MTLP peptide solutions were prepared at 1 mg/mL and 20 μL aliquots placed in tubes. To one set of tubes an equal volume of mouse serum was added and to a second set 0.9% saline solution was added as negative a control. The tubes were incubated at 37° C. A control and a sample tube were removed at various timepoints (10, 30, 60 and 120 min) and any reaction quenched using 70:30 acetonitrile:water (160 μL). Each quenched sample was then analysed by HPLC-UV at 220 nm with a C18 column (5 μm, 300Å, 250×4.6 mm id) for 45 minutes. Mobile phase A was 10:90 acetonitrile: 0.1% trifluoroacetic acid in water and mobile phase B was 0.1% trifluoroacetic acid in acetonitrile.

[6] = tested on: KB cells; test: In vitro transfection (luciferase expression); assay type: cell-based; conditions: 1 μg DNA/well
Description: The following day, the media was removed and replaced with 500 μl of fresh serum-free media.

[7] = tested on: MDA-MB-231 cells; test: Competition assays of ligand-mediated transfection; assay type: cell-based, human; conditions: 0.1 μg DNA/well; for effect of 1000-fold excess of free peptide on DSPE-PEG5K-RGD mediated transfection: 10 mol % DSPE-PEG5K-RGD LPD
Description: Three competitions assays were performed using MDA-MB-231 cells in order to assess specificity of transfection-mediated-[…] (SEQ ID NO:10) or DSPE-PEG5K-RGD (SEQ ID NO:11). Transfections were performed as described above except that the culture media was supplemented with free LHRH or RGD peptides, or antibody against the LHRH or the integrin receptor as competition agents. 10 mol % pegylated lipid or targeting factor-pegylated lipid conjugate was used for each experiment.
The first competition assay was performed using 1 μg DNA/well. This DNA concentration required a high concentration of free LHRH to achieve a 100 fold excess of free LHRH which was toxic for the cells. Similarly, with the RGD formulation, this DNA concentration required a high concentration of free RGD in order to achieve 100 fold excess of free RGD (3.25 μl of dansyl-labeled RGD ((Integrated Biomolecule Corporation, Tucson, Ariz.) from a solution at 5 mg/ml in H2O) which was toxic for the cells.
In order to decrease LHRH associated toxicity, a second competition assay was performed using 0.1 μg DNA/well (FIGS. 6A and 6B). 0.1 μg DNA/well corresponds to 862.62 ng DSPE-PEG5K-LHRH (SEQ ID NO:10) or 168.6 ng of LHRH/well using a 12 nmol:1 μg lipid:DNA ratio and 10 mol % DSPE-PEG5K-LHRH (SEQ ID NO:10) in the total lipids in the formulation. Transfections were performed as described above. The second competition assay was performed using 17.5 μg/well (5 μl) of anti-LHRH receptor F1G4, and 15 μg/well (50 μl) of anti-LHRH receptor A9E4 from Biogenesis (Kingston, N.H.). The appropriate isotype match antibody (17.5 μg/well), anti-CD3 IgG1K (Pharmingen, San Diego, Calif.), was used as a control. Additionally, a 100-fold and 1000 fold excess of LHRH was tested as a competition agent: the media was supplemented with 6.5 μl or 65 μl of a stock solution of 2.5 mg/ml of [D-Trp]-LHRH from Sigma (St. Louis, Mo.). Moreover, in this particular experiment, 2 anti-LHRH receptor polyclonal serums were tested: 5 μl/well of a rabbit serum anti-LHRH receptor (Biogenesis, Kingston, N.H.) and 50 μl/well sheep serum anti-LHRH receptor (Biogenesis, Kingston, N.H.). The corresponding volumes of control serum were used as an isotype control. Control serums were purchased from Sigma (St. Louis, Mo.).
LPDs were also directly incubated with an anti-LHRH antibody or an isotype control (Anti-IgG) antibody before addition of LPDs to cells in order to block the LHRH molecule on the LPD surface (data not shown). Briefly, 6.67 μl of 1/10 diluted DSPE-PEG5K-LHRH LPDs at 150 μg DNA/ml were mixed with 50 μl of mouse anti-LHRH antibody or control (Dako Corporation, Carpinteria, Calif.) and incubated for 1 h at room temperature prior to transfection as described above. […]

Sequence of LHRH receptor on MDA-MB-231, SKOV3-IP1 and H-69 cells (human) (P30968 whole entry): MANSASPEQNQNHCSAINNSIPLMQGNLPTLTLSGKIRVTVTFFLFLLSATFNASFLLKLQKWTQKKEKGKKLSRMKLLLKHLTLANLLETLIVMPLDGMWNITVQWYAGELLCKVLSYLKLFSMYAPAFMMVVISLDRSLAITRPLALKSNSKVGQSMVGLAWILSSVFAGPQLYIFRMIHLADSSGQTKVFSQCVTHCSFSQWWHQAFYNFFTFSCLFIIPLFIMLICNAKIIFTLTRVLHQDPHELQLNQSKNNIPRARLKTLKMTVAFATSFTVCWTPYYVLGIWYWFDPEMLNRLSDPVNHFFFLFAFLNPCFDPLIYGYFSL

Molecule: CCN(CC)CCCC(C)Nc1ccnc2cc(Cl)ccc12 (stereo not shown) [Chloroquine, chloroquine]
effect on PPAA-mediated transfection ([1]; 1600 nM): blocked PPAA-mediated transfection

Molecule: S(Galactose)KKAAAVLLPVLLAAP [GElan094]
transfection with DC-Chol:DOPE LPDs containing ligand [2]: no increase in transfection | transfection with DC-Chol:DOPE LPDs containing ligand [3]: Increased transfection

luciferase expression in MDA-MB-231 cells after transfection with LPDs containing 10 mol % DSPE-PEG5K-LHRH, free LHRH in the medium as competition agent [4]: 1000 fold
Molecule: [D-Trp]-LHRH from Sigma (from UniProt P01148 24-33) (peptide)

stability in mouse serum (recovery by HPLC-UV) [5]: stable in mouse serum up to 2 h
Molecule: CC(C)C[C@@H](NC(=O)[C@@H](CC(C)C)NC(=O)[C@H](NC(=O)[C@H]1CCCN1C(=O)[C@@H](CC(C)C)NC(=O)[C@@H](CC(C)C)NC(=O)[C@H](NC(=O)[C@@H](C)NC(=O)[C@@H](C)NC(=O)[C@@H](CCCCN)NC(=O)[C@@H](CCCCN)NC(=O)[C@H](N)CCCCN)C(C)C)C(C)C)C(=O)N[C@H](C)C(=O)N[C@H](C)C(=O)N1CCC[C@@H]1C(=O)O [ZElan207, H2N-kkkaavllpvllaap] (H-[dK][dK][dK][dA][dA][dV][dL][dL][dP][dV][dL][dL][dA][dA][dP]-OH; C-terminus assumed)

Molecule: des-Pro-KKAAAVLLPVLLAAS-Galactose [Elan094G]
transfection with DC-Chol:DOPE LPDs containing ligand [2]: no increase in transfection | dose giving optimal transfection ([3]; DC-chol:DOPE LPDs, dose titration (FIG. 14)): 50 µM | transfection with DC-Chol:DOPE LPDs containing ligand [3]: Increased transfection

Molecule: RRRRRRRH
increase in transfection activity when formulated with CHEMS:DOPE compared to peptide-compacted DNA alone [6]: 2 fold

Molecule: GRGDSP
effect of 1000-fold excess of free peptide on DSPE-PEG5K-RGD mediated transfection [7]: inhibition of transfection activity

Molecule: GRGDNP
effect of 1000-fold excess of free peptide on DSPE-PEG5K-RGD mediated transfection [7]: inhibition of transfection activity

Molecule: GRGESP
effect of 1000-fold excess of free peptide on DSPE-PEG5K-RGD mediated transfection [7]: did not inhibit transfection activity

stability in mouse serum (recovery by HPLC-UV) [5]: degrades in mouse serum over 2 hr | ligand still detectable at 30 minutes following incubation in mouse serum [5]: up to 60% | start of degradation in mouse serum [5]: > 10 min
Molecule: H-KKKAAAVLLPVLLAAP [ZElan094]

Molecule: H2N-KKKAAAVLLPVLLAAPREDL (H-KKKAAAVLLPVLLAAPREDL) [ZElan094R]
transfection with DC-Chol:DOPE LPDs containing ligand [2]: no increase in transfection | transfection with DC-Chol:DOPE LPDs containing ligand [3]: Increased transfection

Molecule: LHRH: free LHRH used as competition agent, [D-Trp]-LHRH from Sigma (QHWSYGLRPG; not fully specified (residue 1, C-terminus); ends and bridges not checked; also: D-Trp, position not given here)
effect of 1000-fold excess of free LHRH on DSPE-PEG5K-LHRH mediated transfection ([7]; 10 mol % DSPE-PEG5K-LHRH LPD): clear inhibition of transfection activity

Molecule: CO/C1=C\C(C)=C\[C@@H](C)[C@@H](O)[C@@H](C)C/C(C)=C/C=C/[C@H](OC)[C@@H]([C@@H](C)[C@@H](O)[C@H](C)[C@@]2(O)C[C@@H](O)[C@H](C)[C@@H](C(C)C)O2)OC1=O [Bafilomycin A, bafilomycin A]
effect on PPAA-mediated transfection ([1]; 10 ng/well): appeard to block PPAA-mediated transfection
